This test has as its system Spiralstreifen der Arteria pulmonalis des Meerschweinchens. Put plainly: Relaxation of potassium-depolarised, CaCl₂-contracted spiral strips of guinea pig pulmonary artery (modified method of Godfraind and Kaba / Schüman et al). The format is cell-based, Meerschweinchen. The following applies: Cavia porcellus; concentration inhibiting the contraction by 50 %; strips depolarised with 40 mmol/l Kalium in calcium-free Tyrode solution, contraction by 0,5 mmol/l CaCl₂; cumulative addition; mean of 4 to 6 strips; read-out: IC₅₀ (converted). An excerpt: Die pharmakologische Wirkung der verbindungen der Formel I wurde nach einer modifizierten Methode von Godfraind and Kaba (Arch.Int. Pharmacodyn. Ther. 196, (Suppl) 35 bis 49, 1972) und von Schüman et al (Naunyn-Schmiedeberg's Arch. Pharmacol. 289, 409 bis 418, 1975) ermittelt. Dabei werden Spiralstreifen der Arteria pulmonalis des Meerschweinchens nach Äquilibrierung in calciumfreier Tyrodelösung mit 40 mmol/l Kalium depolarisiert. Ein Zusatz von 0,5 mmol/l CaCl₂ löst dann eine Kontraktion aus. Die relaxierende Wirkung der Prüfsubstanz wird durch kumulative Zugabe in 1/2 log 10 abgestuften Konzentrationen ermittelt. Aus der Konzentrationswirkungskurve (Abszisse: -log mol/l Prüfsubstanz, Ordinate: % Hemmung der maximalen Kontraktion, Mittelwert von 4 bis 6 Gefäß-streifen) wird die Konzentration der Prüfsubstanz ermittelt, welche die Kontraktion um 50 % hemmt (= IC₅₀, mol/l). In der folgenden Tabelle sind die so erhaltenen IC₅₀-Werte angegeben. Wie der Vergleich mit dem IC₅₀-Wert 3·10⁻⁴ für die bekannte Verbindung Molsidomin (N-Ethoxycarbonyl-3-morpholino-sydnonimin), vgl. DE-B-16 95 897, ergibt, liegen die Werte für die Verbindungen der Formel I erheblich günstiger.

Structures can show the parent of a compound that is named as a salt.

Consider `CC1(C)COCCN1[n+]1cc([NH-])on1` [a, 3-(3.3-Dimethylmorpholin-4-yl)-sydnonimin-hydrochlorid], for which the IC50 was 1000 nM. The figure for `CC1(C)CCCCN1[n+]1cc([NH-])on1` [b, 3-(2.2-Dimethylpiperidin-1-yl)-sydnonimin-hydrochlorid] is 1000 nM; for `CC(C)N1CCN([n+]2cc([NH-])on2)C(C)(C)C1` [c, 3-(4-Isopropyl-2.2-dimethyl-piperazin-1-yl)-sydnonimin-dihydrochlorid] it is 1000 nM; for `CCOC(=O)[N-]c1c[n+](N2CCOCC2)no1` [d, N-Ethoxycarbonyl-3-morpholino-sydnonimin, reference compound] it is 300000 nM.

Source of the values: patent publication EP0346694A1, “Substituted 3-Aminosydnone imines, process for their preparation and their use” (CASSELLA Aktiengesellschaft, priority 1988, dated 1989).
